Usually IC50 stands for the concentration needed to halve the response being measured. A word on the inhibition: it is how much of the control response was suppressed.

SMILES strings stand for the structures. Like-named read-outs stand apart in the source and are kept apart here.

Assay [1] concerns PGE2 production in LPS-induced RAW 264.7 cells. The experiment in a line: LPS-induced PGE2 production in RAW 264.7 cells (ELISA). Type of assay: cell-based. Conditions: for IC50: read-out: PGE2 IC50; for inhibition at 50 µM: RAW264.7, read-out: PGE2 % inhibition (50 µM). As for the experimental part:
RAW 264.7 cells (1 × 10^5 cells/well, 200 µL) were incubated in a 96-well culture plate in the presence of 5% CO2 at 37 °C for 24 h. The medium was changed to non-colored DMEM containing 5% FBS, and the cells were treated with various concentrations of compounds for 30 min followed by 1 μg/mL of LPS treatment for 24 h. Cell media were collected, diluted 18-times and used for measuring PGE2. Nunc-Immuno 96-well plates were coated with secondary antibody (goat anti-mouse IgG) affinity purified (Jackson Immuno Research Laboratories). Aliquots of cell media were added to the immune plate with primary PGE2 monoclonal antibody (Cayman Chemical) and a tracer PGE2-acetylcholinesterase (Cayman Chemical) and incubated overnight at room temperature in the dark. The next day, the wells were aspirated, washed, 200 µL of Elman’s reagent was added in each well, and incubated 2–5 h at 37 °C out of direct light until control wells reach an optical density 0.4–0.5. Gentle rotating/shaking was used to decrease the time required for color development. Absorbance was read at 412 nm. The PGE2 concentration of each sample was calculated from a PGE2 standard curve (PGE2 from Cayman Chemical). The percent inhibition as a function of the inhibitor concentration was graphed to determine the IC50 values (concentration at which there was 50% inhibition).
For orientation: In an ELISA, binding on a coated surface is turned into a signal by an enzyme label.

For another assay, the target named is T1, ovine COX-1 (Ovis aries, UniProt P05979).
T1 sequence (P05979 25-600): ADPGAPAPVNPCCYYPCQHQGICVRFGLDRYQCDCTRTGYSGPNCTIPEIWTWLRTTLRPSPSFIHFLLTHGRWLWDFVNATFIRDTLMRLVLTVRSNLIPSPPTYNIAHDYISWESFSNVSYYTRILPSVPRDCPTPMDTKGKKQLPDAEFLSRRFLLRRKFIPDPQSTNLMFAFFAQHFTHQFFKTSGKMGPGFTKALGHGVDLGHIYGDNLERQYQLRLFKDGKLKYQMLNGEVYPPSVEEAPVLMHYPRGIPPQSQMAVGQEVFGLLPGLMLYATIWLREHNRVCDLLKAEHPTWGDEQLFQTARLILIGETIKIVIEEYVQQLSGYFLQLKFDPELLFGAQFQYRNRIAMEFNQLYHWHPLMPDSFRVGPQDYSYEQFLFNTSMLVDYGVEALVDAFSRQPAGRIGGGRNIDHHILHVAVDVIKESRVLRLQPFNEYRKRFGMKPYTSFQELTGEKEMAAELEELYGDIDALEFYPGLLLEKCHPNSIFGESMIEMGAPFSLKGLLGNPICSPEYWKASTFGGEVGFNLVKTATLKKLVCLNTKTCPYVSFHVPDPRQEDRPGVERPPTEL
The experiment in a line: COX-1 inhibition assay (LC-MS/MS of PGE2). Type of assay: biochemical. As for the experimental part: (§1) Each COX reaction was initiated by adding 20 µL of arachidonic acid in Tris-HCl (pH 8.0) buffer to give a final concentration of 5 µM. The reaction was terminated after 2 min by adding 20 µL of 2.0 M HCl. The surrogate standard PGE2-d4 was added to correct for errors or degradation during sample handling and for variation in injection volume or instrument response during LC-MS/MS. After 30 min, PGE2 and its surrogate standard were extracted from each incubation mixture using 800 µL of hexane/ethyl acetate (50:50, v/v). The organic phase was removed, evaporated to dryness, and reconstituted in 100 µL methanol/water (50:50, v/v) for analysis using LC-MS/MS with an Applied Biosystems AP4000 triple quadrupole mass spectrometer as described previously. The concentration of PGE2 in each sample was measured using LC-MS/MS, and the percent of COX inhibition by each test solution was determined by comparing the amount of PGE2 produced in the experiment with that produced in the negative control incubation. For IC50 value determination, 12 different concentrations of each inhibitor were assayed three times. The IC50 value of each inhibitor toward COX-1 or COX-2 was determined by plotting and analyzing the inhibition curve data using Graph Pad Prism 5 software. The selectivity of each inhibitor was calculated as the ratio of the IC50 values (COX-1/COX-2).

In a further assay the target is T2, human COX-2 (Homo sapiens, UniProt P35354).
T2 sequence (P35354 18-604): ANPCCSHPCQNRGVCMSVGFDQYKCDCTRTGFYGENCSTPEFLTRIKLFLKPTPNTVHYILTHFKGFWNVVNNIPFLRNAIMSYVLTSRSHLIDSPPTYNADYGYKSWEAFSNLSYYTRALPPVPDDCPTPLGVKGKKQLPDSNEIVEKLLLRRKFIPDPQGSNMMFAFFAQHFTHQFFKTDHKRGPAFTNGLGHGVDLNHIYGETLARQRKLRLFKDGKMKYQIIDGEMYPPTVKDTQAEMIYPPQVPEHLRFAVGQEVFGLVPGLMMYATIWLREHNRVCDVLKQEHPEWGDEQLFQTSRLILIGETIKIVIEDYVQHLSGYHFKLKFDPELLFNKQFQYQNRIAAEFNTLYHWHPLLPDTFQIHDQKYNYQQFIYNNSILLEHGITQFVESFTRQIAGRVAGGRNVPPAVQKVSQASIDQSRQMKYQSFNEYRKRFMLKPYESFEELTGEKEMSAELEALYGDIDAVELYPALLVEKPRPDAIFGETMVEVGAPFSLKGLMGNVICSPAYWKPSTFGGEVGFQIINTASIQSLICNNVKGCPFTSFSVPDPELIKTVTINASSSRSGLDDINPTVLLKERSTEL
Kind of assay: COX-2 inhibition assay (LC-MS/MS of PGE2). Type of assay: biochemical. Conditions: for IC50: human COX-2; for Selectivity COX-1/COX-2: ratio of the IC50 values (COX-1/COX-2). As for the experimental part: as §1

Where [2] appears, read: Mus musculus, RAW264.7, LPS-induced RAW 264.7 cells.
Where [3] appears, read: Mus musculus, LPS-induced RAW 264.7 cells.

With `CC(C)=CCn1c2ccc(Br)c(=O)c-2nc2ccccc21` [Phenazine 2], the half-inhibitory concentration (IC50) in assay [1] (setting [2]) was determined as 0.89 ± 0.22 µM; against ovine COX-1, 5.6 ± 0.61 µM; against human COX-2 it was 7.2 ± 0.13 µM. Further, in assay [1] (setting [3]), the inhibition at 50 µM turned out to be 86.9 ± 12.9%. For the same compound, the “Selectivity COX-1/COX-2” value at human COX-2 is recorded as 0.78.
Consider `CC1=C(Cn2c3cccc(=O)c-3nc3ccccc32)CCC(C)(C)C1` [Lavanducyanin 3, lavanducyanin], for which the concentration for half-maximal inhibition (IC50) in assay [1] (setting [2]) worked out at 0.63 ± 0.16 µM; on ovine COX-1, 30 ± 1.08 µM; against human COX-2 it was 34 ± 1.1 µM. In addition, the inhibition at 50 µM in assay [1] (setting [3]) is 80.6 ± 18.4%. Moreover, the “Selectivity COX-1/COX-2” value on human COX-2 is 0.88.
As for `CC1=C(Cn2c3ccc(Br)c(=O)c-3nc3ccccc32)CCC(C)(C)C1` [Phenazine 1], the concentration for half-maximal inhibition (IC50) in assay [1] (LPS-induced RAW 264.7 cells) was 7.15 ± 2.03 µM; in assay [1] (setting [2]), 7.5 µM; at ovine COX-1, 11 ± 0.53 µM; at human COX-2 it was 4 ± 0.41 µM. For the same compound, the inhibition at 50 µM in assay [1] (setting [3]) turned out to be 72.5 ± 16.3%. For the same compound, the “enhancement of inhibition of the catalytic activity of COX-2” value at human COX-2 (phenazine 1 compared with lavanducyanin) is ~10 fold. For the same compound, the “Selectivity COX-1/COX-2” value at human COX-2 is 2.75; on human COX-2 (listed as phenazine 1) it was “approximately 3”.

These data come from article PMC3297008, “Novel Marine Phenazines as Potential Cancer Chemopreventive and Anti-Inflammatory Agents” (Marine Drugs, 2012).
